The subject of this experiment is L1210 leukemia ip in BDF1 mice, survival T/C. Nature of the experiment: NCI In Vivo Anticancer Drug Screen. Data for tumor model L1210 Leukemia (intraperitoneal) in B6D2F1 (BDF1) mice. Particulars: endpoint: mean survival time, higher = longer survival. The method in brief:
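Value reflects the ratio of survival in compound-treated mice to survival in vehicle-treated controls, with both groups carrying the same transplanted tumor.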

The mark [1] stands for this setting: dose: 100.0 mg/kg/injection, schedule: Q01DX009 (ip), vehicle: other.
Where [2] appears, read: dose: 200.0 mg/kg/injection, schedule: Q01DX009 (ip), vehicle: other.
Where [3] appears, read: dose: 400.0 mg/kg/injection, schedule: Q01DX009 (ip), vehicle: other.
[4] abbreviates: dose: 100.0 mg/kg/injection, schedule: Q01DX001 (ip), vehicle: carboxymethylcellulose (CMC).
The mark [5] stands for this setting: dose: 200.0 mg/kg/injection, schedule: Q01DX001 (ip), vehicle: carboxymethylcellulose (CMC).
The mark [6] stands for this setting: dose: 400.0 mg/kg/injection, schedule: Q01DX001 (ip), vehicle: carboxymethylcellulose (CMC).
Where [7] appears, read: dose: 75.0 mg/kg/injection, schedule: Q01DX001 (ip), vehicle: saline.
Where [8] appears, read: dose: 150.0 mg/kg/injection, schedule: Q01DX001 (ip), vehicle: saline.
[9] abbreviates: dose: 100.0 mg/kg/injection, schedule: Q01DX001 (ip), vehicle: saline.
Where [10] appears, read: dose: 200.0 mg/kg/injection, schedule: Q01DX001 (ip), vehicle: saline.
[11] abbreviates: dose: 400.0 mg/kg/injection, schedule: Q01DX001 (ip), vehicle: saline.
Setting [12] is: dose: 100.0 mg/kg/injection, schedule: Q04DX003 (ip), vehicle: saline with Tween-80.
[13] abbreviates: dose: 200.0 mg/kg/injection, schedule: Q04DX003 (ip), vehicle: saline with Tween-80.
Setting [14] is: dose: 400.0 mg/kg/injection, schedule: Q04DX003 (ip), vehicle: saline with Tween-80.
Where [15] appears, read: dose: 50.0 mg/kg/injection, schedule: Q01DX001 (ip), vehicle: saline.
[16] abbreviates: dose: 125.0 mg/kg/injection, schedule: Q01DX Z (ip), vehicle: carboxymethylcellulose (CMC).

The source of these data is PubChem BioAssay AID248 (DTP/NCI, 2004).

Where “and” joins values, the source holds several entries; their conditions need not be identical. Equal values may be shown once. Inconclusive results and toxic doses are left out.

With `CCOC(=O)C(C(C)=O)C(=O)OCC`, the T/C runs as follows: (dose: 25.0 mg/kg/injection, schedule: Q01DX009 (ip), vehicle: other) 101 % of control; (dose: 50.0 mg/kg/injection, schedule: Q01DX009 (ip), vehicle: other) 103 % of control; under setting [1], 109 % of control; under setting [2], 100 % of control; under setting [3], 95 % of control.
With `O=C(C[n+]1cccc(C(=O)NCc2ccccc2)c1)NCc1ccccc1`, the T/C runs as follows: (dose: 25.0 mg/kg/injection, schedule: Q01DX009 (ip), vehicle: saline sonified) 100 % of control; (dose: 50.0 mg/kg/injection, schedule: Q01DX009 (ip), vehicle: saline sonified) 97 % of control; (dose: 110.0 mg/kg/injection, schedule: Q01DX009 (ip), vehicle: saline sonified) 95 % of control.
`Nc1c(Cl)c(Cl)c2c(c1Cl)C(=O)c1cc(Cl)ccc1-2`: the T/C is 97 % of control under setting [4], 108 % of control under setting [5] and 105 % of control under setting [6].
Regarding `O=C(CCN1CC1)Nc1ccc(NC(=O)CCN2CC2)cc1`, the T/C reads like this: (dose: 2.0 mg/kg/injection, schedule: Q01DX009 (ip), vehicle: Klucel (hydroxypropylcellulose) (HPC)) 121 % of control; (dose: 3.0 mg/kg/injection, schedule: Q01DX009 (ip), vehicle: Klucel (hydroxypropylcellulose) (HPC)) 156 % of control; (dose: 6.6 mg/kg/injection, schedule: Q01DX009 (ip), vehicle: Klucel (hydroxypropylcellulose) (HPC)) 184 % of control; (dose: 10.0 mg/kg/injection, schedule: Q04DX003 (ip), vehicle: Klucel (hydroxypropylcellulose) (HPC)) 115 % of control; (dose: 20.0 mg/kg/injection, schedule: Q01DX009 (ip), vehicle: Klucel (hydroxypropylcellulose) (HPC)) 97 % of control; (dose: 40.0 mg/kg/injection, schedule: Q04DX003 (ip), vehicle: Klucel (hydroxypropylcellulose) (HPC)) 171 % of control and 181 % of control.
Turning to `NC(N)=N/N=C/c1cc(Br)ccc1O`, the T/C runs as follows: under setting [7], 102 % of control; under setting [8], 98 % of control.
In the case of `Cc1ccc(-c2ccno2)cc1`, the T/C under setting [4] was 96 % of control, the T/C under setting [5] was 92 % of control and the T/C under setting [6] is 97 % of control.
Turning to `Cc1ccc(C)c2c3c(oc12)CCCC3`, the T/C reads like this: under setting [9], 91 % of control; under setting [10], 94 % of control; under setting [11], 105 % of control.
For `O=C(CCl)Nc1cccc2c1C(=O)c1c(c(O)c3ccccc3c1O)C2=O`, the T/C by setting is: under setting [12], 94 % of control; under setting [13], 92 % of control; under setting [14], 90 % of control.
On to `C/C=C/CC(C/C=C/C)C1CC[N-]CC1.C/C=C/CC(C/C=C/C)C1CC[N-]CC1.[Cl][Pt+2]([Cl])([Cl])[Cl]`, for which the T/C by setting is: (dose: 3.13 mg/kg/injection, schedule: Q01DX009 (ip), vehicle: other) 94 % of control; (dose: 6.25 mg/kg/injection, schedule: Q01DX009 (ip), vehicle: other) 87 % of control; (dose: 12.5 mg/kg/injection, schedule: Q01DX009 (ip), vehicle: other) 105 % of control.
For `CCCCCCNC(=O)NC`, the T/C (dose: 100.0 mg/kg/injection, schedule: Q01DX009 (ip), vehicle: Klucel (hydroxypropylcellulose) (HPC)) was 97 % of control and the T/C (dose: 200.0 mg/kg/injection, schedule: Q01DX009 (ip), vehicle: Klucel (hydroxypropylcellulose) (HPC)) is 103 % of control.
`COc1cc(OC)cc(C2N(Cc3ccc(OC)c(OC)c3)CCN2Cc2ccc(OC)c(OC)c2)c1`: the T/C (dose: 100.0 mg/kg/injection, schedule: Q01DX009 (ip), vehicle: saline with Tween-80) is 100 % of control; the T/C under setting [12] is 104 % of control; the T/C (dose: 200.0 mg/kg/injection, schedule: Q01DX009 (ip), vehicle: saline with Tween-80) was 108 % of control; the T/C under setting [13] is 100 % of control; the T/C (dose: 400.0 mg/kg/injection, schedule: Q01DX009 (ip), vehicle: saline with Tween-80) is 101 % of control; the T/C under setting [14] was 98 % of control.
For `Cc1nc2nc(N)nc(N)c2nc1C`, the T/C reads like this: (dose: 15.63 mg/kg/injection, schedule: Q01DX Z (ip), vehicle: carboxymethylcellulose (CMC)) 103 % of control; (dose: 31.25 mg/kg/injection, schedule: Q01DX Z (ip), vehicle: carboxymethylcellulose (CMC)) 93 % of control; under setting [15], 117 % of control; (dose: 62.5 mg/kg/injection, schedule: Q01DX Z (ip), vehicle: carboxymethylcellulose (CMC)) 91 % of control; under setting [9], 102 % of control; under setting [16], 92 % of control. Moreover, the T/C by setting is: under setting [10], 102 % of control; under setting [11], 100 % of control.
As for `CCCCCCCC/C=C\CCCCCCCC(=O)NCC[N+]1(C)CCCCC1`, the T/C reads like this: under setting [7], 94 % of control; under setting [8], 97 % of control.
`O=C(NOCCCl)Nc1ccccc1`: the T/C reads like this: under setting [16], 96 % of control; (dose: 200.0 mg/kg/injection, schedule: Q01DX Z (ip), vehicle: carboxymethylcellulose (CMC)) 96 % of control; (dose: 250.0 mg/kg/injection, schedule: Q01DX Z (ip), vehicle: carboxymethylcellulose (CMC)) 107 % of control; (dose: 500.0 mg/kg/injection, schedule: Q01DX Z (ip), vehicle: carboxymethylcellulose (CMC)) 95 % of control.
Regarding `ClCCN(CCCl)c1ccc(C=Nc2cccc(Cl)c2)cc1`, the T/C (dose: 50.0 mg/kg/injection, schedule: Q01DX001 (ip), vehicle: carboxymethylcellulose (CMC)) is 100 % of control; the T/C under setting [4] is 100 % of control; the T/C under setting [5] was 105 % of control; the T/C under setting [6] was 105 % of control.
For the molecule `COc1ccc(OC(=O)Nc2cccc(C(C)=O)c2)cc1`, the T/C is 106 % of control under setting [1], 89 % of control under setting [2] and 101 % of control under setting [3].
Consider `Cc1nnc(S(=O)(=O)c2ccc(N=Nc3c(N)nc(N)nc3N)cc2)s1`, for which the T/C is 92 % of control under setting [4], 97 % of control under setting [5] and 94 % of control under setting [6].
In the case of `CNC(=S)Nc1ccccc1`, the T/C (dose: 100.0 mg/kg/injection, schedule: Q04DX003 (ip), vehicle: carboxymethylcellulose (CMC)) is 95 % of control and the T/C (dose: 200.0 mg/kg/injection, schedule: Q04DX003 (ip), vehicle: carboxymethylcellulose (CMC)) was 96 % of control.
Turning to `C/C(Cc1c[nH]c2ccccc12)=N/NC(N)=S`, the T/C reads like this: under setting [15], 100 % of control; under setting [9], 100 % of control.
Take `CCCCCCSc1n[nH]c(=O)[nH]c1=O`: the T/C by setting is: under setting [9], 97 % of control; under setting [10], 95 % of control; under setting [11], 108 % of control.
